Laboratory results: paper PMC11172314, “Towards Enhanced Tunability of Aqueous Biphasic Systems: Furthering the Grasp of Fluorinated Ionic Liquids in the Purification of Proteins” (International Journal of Molecular Sciences, 2024)

What was measured:
Set-up in all cases: species or system chicken
[1] = target: T1, lysozyme (Lys) (Gallus gallus, UniProt P00698); assay: DSC thermal stability (Tm, ΔH) of lysozyme in water, component solutions and ABS phases; details: 1.0 mg/mL Lys
T1 construct: Lyophilized lysozyme from chicken egg white, ≥90% purity; purchased Millipore (Darmstadt, Germany); host or cells: chicken egg white (natural source)
Text: Differential scanning calorimetry (DSC) measurements (Section 3) were used to determine the melting temperature ( Tm ) and enthalpy ( Δ H) of lysozyme, at which both the folded and unfolded states coexist at equilibrium. DSC outputs, thermal transitions at the nanoscale level, allow to analyze alterations on proteins structure and stability, providing sharp perceptions of the factors affecting stability, as well as of the folding and unfolding processes. […] (DSC curve depicted in Figure S16 of Supplementary Materials).
FIL (BP#8, BP#10, BP#11, and BP#12). […] For the system based on [C4C1Im][CF3SO3]
The thermal stability of lysozyme was analyzed in water, ABS phase-forming compounds aqueous solutions, and partition ABS phases. […] Partition lysozyme on each phase from the prepared biphasic points as well as recovered protein from the FIL-rich phase were also addressed for a selection of studied systems listed in Table 1. We acquired thermograms using a TA^TM Nano DSC from TA Instruments. All scans were conducted in a 300 μ L capillary cell through a temperature ramp from 20 to 90 °C at a heating rate of 1 °C/min and 3 atm pressure. All samples were degassed for 7 min at 20 °C, with the exception of FIL-containing samples owing to their surfactant properties. After subtracting the polynomial fit baselines, raw thermogram curve data were fitted with the TwoStateScaled model using NanoAnalyze TA Instruments software, version 3.12, to determine the protein thermal transition temperatures in each sample. During nanoDSC scans, Δ H and Δ S were obtained and utilized to determine Δ G ( Δ G = Δ H − T Δ S).

[2] = target: T1, lysozyme (Lys); assay: Intrinsic (tryptophan) fluorescence of lysozyme; details: 0.2 mg/mL Lys, excitation 295 nm, component 0.1–800 mM, 25 °C
Text: (FIL), [C4C1Im][CF3SO3] (mere fluoro-containing IL), and [ N1112(OH) ][H2PO4] (globular protein stabilizer). […] Even though large changes in protein conformation can modify the intensity of tyrosine and phenylalanine fluorescence signals, their low extinction coefficients and quantum yields, as well as their relative lower sensitivity to environmental changes, make them a less appealing candidate. Tryptophan is frequently found concealed in the hydrophobic core of proteins due to its aromatic nature. […] The tryptophan release energy is particularly sensitive to the polarity (and dynamics) of the environment because the excited-state dipole moment is quite large. Reactions to denaturation, substrate binding, subunit association, and conformational transitions create variations in the tryptophan emission spectra. The spectrum shift generally known as blue shift, a shift of the maximum emission towards smaller wavelengths, denotes that the aromatic residue is buried in the native structure of the protein [67]. […] Furthermore, the amount of exposure of the fluorophores to the solvent is associated with the increase or decrease in the intensity of the emission spectrum. […] [C4C1Im][CF3SO3] and [ N1112(OH) ][H2PO4] […] Variations in lysozyme spectra are caused by ligand-induced changes in the microenvironment of tryptophan residues, either by shifting the maximum peak wavelength (blue or red shift) or by altering peak intensities. These changes can be used as a measure of the effect of the ABS phase-forming components on protein folding and unfolding.
Intrinsic fluorescence spectroscopy measurements of lysozyme’s tryptophan residues were carried out on a Spex Horiba Jobyin Yvon spectrofluorometer (HORIBA Jobin Yvon, France) using a 10 mm path length quartz cuvette. […] The excitation and emission slit widths of 2 nm were used for all the measurements. Maximum fluorescence values were attained as the average of three measurements.

[3] = target: T2, FITC-Lys (lysozyme) (Gallus gallus, UniProt P00698); assay: Microscale thermophoresis (MST) binding of ABS phase-forming components to FITC-labeled lysozyme; details: FITC-Lys 0.41 μM, 25 °C; max. conc. (first capillary) in monomer range: below 1st CAC for FILs, ]0, 100] mM for non-aggregating ligands
T2 construct: Lyophilized lysozyme from chicken egg white, ≥90% purity; purchased Millipore (Darmstadt, Germany); host or cells: chicken egg white (natural source)
Experimental: Usually, in the labeling process, the position of dye is statistically distributed, and one amine per protein is labeled. […] The four ABS phase-forming components, [ N1112(OH) ][H2PO4] […] (FILs), and [C4C1Im][CF3SO3] […] In each run of MST, a maximum concentration of ligand was selected and consecutively diluted in sixteen capillaries.
Binding studies were conducted through microscale thermophoresis measurements of dye-labeled lysozyme. […] MST tests were conducted in a monolith NT.115 (blue/red) in accordance with the Nano Temper Technologies methodology. Medium MST power and 20% LED power (nano-blue) were set as the instrument’s default settings. For each and every MST measurement, PBS buffer was used. […] For each ligand, a series of 16 1:1 dilutions was prepared using the same buffer, varying the starting ligand concentration from 15 to 400 mM. MST traces were recorded using the standard parameters: 5 s MST power off, 30 s MST power on, and 5 s MST power off. Three independently conducted pipetted experiments’ data were examined using NanoTemper Technologies’ MO. Affinity Analysis program, version 2.3.

[4] = target: T1, lysozyme (Lys); assay: Turbidimetry (transmittance) of lysozyme solutions; details: 0.2 mg/mL Lys, IL 0.1–120 mM, 25 °C
Text: Monitoring the changes in turbidity offers an insight into the protein–ionic liquid aqueous solution interactions, which allows for the assessment of the ionic liquid functionalization of the fluorinated IL vs. the mere fluoro-contaning IL ([C2C1Im][C4F9SO3] vs. [C4C1Im][CF3SO3]). […] In opposition, [C2C1Im][C4F9SO3] […] The results of Rather et al. also confirmed the significant composition and concentration dependence of the lysozyme–surfactant IL interactions, mainly in the CAC concentration regime. Additionally, an increase in turbidity is observed for both [C4C1Im][CF3SO3] and [C2C1Im][C4F9SO3] at concentrations below the first CAC of the FIL (only monomers exist in solution for both ionic liquids) in comparison with lysozyme in water (snapshots in Figure 7A,B). […]
Both turbidimetry and UV-Vis absorbance assays were carried out at 25 °C on a double-beam UV6300PL UV-Vis spectrophotometer (VWR, Leuven, Belgium) with a pair of 10 mm path length quartz cuvettes of 400 µL sample volume. […] For absorbance measurements, all spectra were acquired with 190 to 400 nm wavelength range. […] Aqueous solutions of [C4C1Im][CF3SO3] and [C2C1Im][C4F9SO3] were analyzed with concentrations varying from 0.1 to 120 mM.

T1 sequence (P00698 19-147): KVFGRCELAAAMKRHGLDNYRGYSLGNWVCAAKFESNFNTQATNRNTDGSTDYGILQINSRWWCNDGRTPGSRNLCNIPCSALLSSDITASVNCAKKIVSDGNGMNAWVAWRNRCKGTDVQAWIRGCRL
T2 sequence (P00698 19-147): as above

`CCCCn1cc[n+](C)c1.O=S(=O)([O-])C(F)(F)F` [[C4C1Im][CF3SO3]] was tested, and the “Lys Tm” value ([1]; 0.1 mM component in water) was 74.50 °C, the “Lys ∆H” value ([1]; 0.1 mM component in water) was 105.5 kcal/mol and the “Lys Tm” value ([1]; 1 mM component in water) was 75.54 °C. The “Lys ∆H” value ([1]; 1 mM component in water) was 104.7 kcal/mol, the “Lys Tm” value ([1]; 5 mM component in water) was 74.64 °C and the “Lys ∆H” value ([1]; 5 mM component in water) was 96.7 kcal/mol. The “Lys Tm” value ([1]; 10 mM component in water) was 74.16 °C, the “Lys ∆H” value ([1]; 10 mM component in water) was 94.55 kcal/mol and the “Lys fluorescence emission intensity with increasing component concentration” value [2] was “increase in Lys fluorescence emission intensity”. For the same molecule, the “Lys maximum emission wavelength with increasing component concentration” value [2] was “red shift from 334 nm to 368 nm”, the Kd [3] was “no binding detected” and the “Turbidity (transmittance) of Lys solution with increasing IL concentration” value [4] was “steady turbidity profile”.
